Reference: patent US9499550B2 (BRISTOL-MYERS SQUIBB COMPANY, priority 2012, dated 2016)
Like-named read-outs stand apart in the source and are kept apart here.

Legend:
[1] = tested on: HCV genotype 1a (H77 strain) replicon in HUH-7 cells; assay: HCV replicon luciferase reporter assay, genotype 1a; type: cell-based; conditions: Hepatitis C virus, Huh-7, 72 h, 3 days incubation, read-out: LE_1a (EC50, range)
Summary of the method: (§1)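 Replicon inhibition for both genotypes was measured as Renilla luciferase signal (EnduRen, 7.5 μM final, 2 h) after 3-day, 37° C exposure of replicon-bearing HUH-7 cells in 4% FCS DMEM, 0.5% DMSO. The 1b construct carries S1179I; the 1a H77 construct carries P1496L and S2204I. Twenty-point, 3-fold dilutions were fitted four-parametrically for EC50, and CC50 was taken from multiplexed Cell Titer-Blue.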

[2] = tested on: HCV genotype 1b (Con1) replicon in HUH-7 cells; assay: HCV replicon luciferase reporter assay, genotype 1b; type: cell-based; conditions: Hepatitis C virus, Huh-7, 72 h, 3 days incubation, read-out: LE_1b (EC50, range)
Summary of the method: as §1

[3] = HCV genotype 1a replicon luciferase
[4] = HCV genotype 1b replicon luciferase
[5] = HCV genotype 1a replicon luciferase assay, range class
[6] = HCV genotype 1b replicon luciferase assay, range class

Row | Structure (SMILES) | EC50 [1, 3] [nM] | EC50 [2, 4] [nM] | EC50 [1, 5] [nM] | EC50 [2, 6] [nM]
1 | COc1ccc2c(O[C@@H]3C[C@H]4C(=O)N[C@]5(C(=O)NS(=O)(=O)C6(C)CC6)C[C@H]5/C=C\CC[C@H](C)C[C@@H](C)[C@H](NC(=O)OC(C)(C)C)C(=O)N4C3)nc(OC(C)C)cc2c1 [Compound 3195, tert-butyl ((2R,6S,7R,9S,13aS,14aR,16aS,Z)-2-((3-isopropoxy-6-methoxyisoquinolin-1-yl)oxy)-7,9-dimethyl-14a-(((1-methylcyclopropyl)sulfonyl)carbamoyl)-5,16-dioxo-1,2,3,5,6,7,8,9,10,11,13a,14,14a,15,16,16a-hexadecahydrocyclopropa[e]pyrrolo[1,2-a][1,4]diazacyclopentadecin-6-yl)carbamate] | 1.01 to 5 | 0.51 to 1 |  | 
2 | COc1ccc2c(O[C@@H]3C[C@H]4C(=O)N[C@]5(C(=O)NS(=O)(=O)C6(CF)CC6)C[C@H]5/C=C\CC[C@@H](C)C[C@@H](C)[C@H](NC(=O)OC(C)(C)C)C(=O)N4C3)nc(N(C)C)cc2c1 [Compound 3123, tert-butyl ((2R,6S,7R,9R,13aS,14aR,16aS,Z)-2-((3-(dimethylamino)-6-methoxyisoquinolin-1-yl)oxy)-14a-(((1-(fluoromethyl)cyclopropyl)sulfonyl)carbamoyl)-7,9-dimethyl-5,16-dioxo-1,2,3,5,6,7,8,9,10,11,13a,14,14a,15,16,16a-hexadecahydrocyclopropa[e]pyrrolo[1,2-a][1,4]diazacyclopentadecin-6-yl)carbamate] |  |  | 4.82 to 103 | 4.82 to 103
3 | CC(C)Oc1ccc2c(O[C@@H]3C[C@H]4C(=O)N[C@]5(C(=O)NS(=O)(=O)C6CC6)C[C@H]5/C=C\CC[C@H](C)C[C@@H](C)[C@H](NC(=O)O[C@H](C)C(F)(F)F)C(=O)N4C3)nccc2c1 [Compound 5149, (R)-1,1,1-trifluoropropan-2-yl((2R,6S,7R,9S,13aS,14aR,16aS,Z)-14a-((cyclopropylsulfonyl)carbamoyl)-2-((6-isopropoxyisoquinolin-1-yl)oxy)-7,9-dimethyl-5,16-dioxo-1,2,3,5,6,7,8,9,10,11,13a,14,14a,15,16,16a-hexadecahydrocyclopropa[e]pyrrolo[1,2-a][1,4]diazacyclopentadecin-6-yl)carbamate] | 4.82 to 103 | < 5.46 |  | 
4 | CC[C@@H]1C[C@@H](C)CC/C=C\[C@@H]2C[C@@]2(C(=O)NS(=O)(=O)C2(C)CC2)NC(=O)[C@@H]2C[C@@H](Oc3nc(OC)cc4cc(OC)ccc34)CN2C(=O)[C@H]1NC(=O)OC(C)(C)C(F)(F)F [Compound 1119, 1,1,1-trifluoro-2-methylpropan-2-yl((2R,6S,7R,9S,13aS,14aR,16aS,Z)-2-((3,6-dimethoxyisoquinolin-1-yl)oxy)-7-ethyl-9-methyl-14a-(((1-methylcyclopropyl)sulfonyl)carbamoyl)-5,16-dioxo-1,2,3,5,6,7,8,9,10,11,13a,14,14a,15,16,16a-hexadecahydrocyclopropa[e]pyrrolo[1,2-a][1,4]diazacyclopentadecin-6-yl)carbamate] |  |  | < 5.46 | < 5.46
5 | COc1cc2cc(-c3ccc(OC(C)C)cc3)nc(O[C@@H]3C[C@H]4C(=O)N[C@]5(C(=O)NS(=O)(=O)C6(C)CC6)C[C@H]5/C=C\CC[C@H](C)C[C@@H](C)[C@H](NC(=O)OC(C)(C)C)C(=O)N4C3)c2cc1F [Compound 3183, tert-butyl ((2R,6S,7R,9S,13aS,14aR,16aS,Z)-2-((7-fluoro-3-(4-isopropoxyphenyl)-6-methoxyisoquinolin-1-yl)oxy)-7,9-dimethyl-14a-(((1-methylcyclopropyl)sulfonyl)carbamoyl)-5,16-dioxo-1,2,3,5,6,7,8,9,10,11,13a,14,14a,15,16,16a-hexadecahydrocyclopropa[e]pyrrolo[1,2-a][1,4]diazacyclopentadecin-6-yl)carbamate] |  |  | 4.82 to 103 | < 5.46
